Assay results published in patent US6218597A, “Transgenic model and treatment for heart disease” (University Technology Corporation, priority 1998, dated 2001).
pKd: −log10 of the molar value.

Molecular target: βAR (β-adrenergic receptor), cardiac sarcolemmal membranes of wild-type FVB/N mice
Conditions: read-out: Kd for ICYP

Structure (SMILES): CC(C)(C)NCC(O)COc1cccc2[nH]c(C#N)c([125I])c12 (stereo not shown) [ICYP, ^125 I-iodocyanopindolol]
- pKd: ~10.70
